ChEMBL document CHEMBL1132050, “Synthesis of novel analogues of the delta opioid ligand SNC-80 using AlCl3-promoted aminolysis” (Bioorg Med Chem Lett, 1999)
pIC50: −log10 of the molar value.

Assays:
Mus musculus [1] = assay: Maximum efficacy in Mouse vas deferens (MVD) functional assay was determined […] at a compound concentration of 10E-10 to 10E-5
[2] = biological target: T1, Delta-type opioid receptor (Homo sapiens, UniProt P41143); assay: Inhibition of binding of [3H]- -naltrindole (0.15 nM) to membranes from CHO cells expressing Opioid receptor delta 1; type: cell membranes
Mus musculus [3] = assay: Antinociceptive activity against acetic acid induced abdominal constriction model in mice by sc administration; type: functional; settings: Abdomen
[4] = biological target: Kappa-type opioid receptor (Cavia porcellus, UniProt P41144); assay: Binding affinity towards Opioid receptor kappa 1 using [3H]- U-69,593 (1.5 nM) as radioligand in guinea pig brain membranes; type: cell membranes, Membrane
Mu-type opioid receptor = Mu-type opioid receptor (Rattus norvegicus, UniProt P33535); assay: Binding affinity towards mu opioid receptor using [3H]- -DAMGO (1.5 nM) as radioligand in rat brain membranes; type: cell membranes
Cricetinae gen. sp. [5] = assay: Potency in the Hamster vas deferens (HVD) functional assay was determined […]
Mus musculus [6] = assay: Potency in the Mouse vas deferens (MVD) functional assay was determined […]
Cricetinae gen. sp. [7] = assay: Maximum efficacy in the Hamster vas deferens (HVD) functional assay was determined […] at a compound concentration of 10E-10 to 10E-5
[8] = biological target: T1, Delta-type opioid receptor; assay: Compound was tested for inhibition of binding of [3H]- -naltrindole (0.15 nM) to membranes from CHO cells expressing human delta opioid receptor; type: cell membranes

T1 sequence (P41143 whole entry): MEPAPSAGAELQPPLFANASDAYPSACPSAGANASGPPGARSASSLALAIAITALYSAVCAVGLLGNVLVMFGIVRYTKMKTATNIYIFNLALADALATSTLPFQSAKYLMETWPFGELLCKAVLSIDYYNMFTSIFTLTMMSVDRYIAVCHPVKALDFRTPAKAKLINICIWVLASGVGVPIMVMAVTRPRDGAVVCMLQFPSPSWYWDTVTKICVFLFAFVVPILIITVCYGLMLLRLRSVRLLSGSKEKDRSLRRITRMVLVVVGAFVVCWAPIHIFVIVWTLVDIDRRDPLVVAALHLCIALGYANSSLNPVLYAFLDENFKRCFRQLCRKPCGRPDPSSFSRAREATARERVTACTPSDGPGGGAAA
Sequence of Kappa-type opioid receptor (P41144 whole entry): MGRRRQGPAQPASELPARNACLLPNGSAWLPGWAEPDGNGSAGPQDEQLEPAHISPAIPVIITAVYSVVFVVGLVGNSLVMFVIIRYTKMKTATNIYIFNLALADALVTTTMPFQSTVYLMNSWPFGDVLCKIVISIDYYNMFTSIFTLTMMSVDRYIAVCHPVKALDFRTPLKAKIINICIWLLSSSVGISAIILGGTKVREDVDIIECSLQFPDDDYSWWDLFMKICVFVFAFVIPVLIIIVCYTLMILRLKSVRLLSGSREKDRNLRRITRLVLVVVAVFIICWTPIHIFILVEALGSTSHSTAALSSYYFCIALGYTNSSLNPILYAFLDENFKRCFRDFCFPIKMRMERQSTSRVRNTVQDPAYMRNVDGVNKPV
Sequence of Mu-type opioid receptor (P33535 whole entry): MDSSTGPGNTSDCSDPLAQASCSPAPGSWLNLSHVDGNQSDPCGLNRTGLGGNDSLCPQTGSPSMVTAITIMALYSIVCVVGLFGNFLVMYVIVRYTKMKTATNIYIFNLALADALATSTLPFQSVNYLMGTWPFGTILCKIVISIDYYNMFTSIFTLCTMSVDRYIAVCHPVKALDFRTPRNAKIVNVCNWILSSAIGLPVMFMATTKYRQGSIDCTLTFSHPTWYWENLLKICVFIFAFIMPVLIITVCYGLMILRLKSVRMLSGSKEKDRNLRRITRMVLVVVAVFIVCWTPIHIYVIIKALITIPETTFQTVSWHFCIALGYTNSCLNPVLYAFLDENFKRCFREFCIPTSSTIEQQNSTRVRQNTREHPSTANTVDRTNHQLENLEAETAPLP

Compound | Efficacy (Mus musculus [1]) [%] | pIC50 [2] | ED50 (Mus musculus [3]) [µmol/kg] | pIC50 [4] | pIC50 (Mu-type opioid receptor) | pIC50 (Cricetinae gen. sp. [5]) | pIC50 (Mus musculus [6]) | Efficacy (Cricetinae gen. sp. [7]) [%] | pIC50 [8]
CCN(CC)C(=O)c1ccc(C(c2ccccc2)N(CCN(C)C)Cc2ccccc2)cc1 (centres undefined) | 7 | 7.15 | 48.4 | 6.32 | < 5.00 | < 5.00 | < 5.00 | 13 | –
CCN(CC)C(=O)c1ccc(C(c2ccccc2)N(CC)CCN(C)C)cc1 (centres undefined) | – | 6.07 | – | – | – | – | – | – | –
C=CCN1CCCN(C(c2ccccc2)c2ccc(C(=O)N(CC)CC)cc2)CC1 (centres undefined) | – | – | – | – | – | – | – | – | 7.89
CCN(CC)C(=O)c1ccc(C(c2ccccc2)N2CCN(CCO)CC2)cc1 (centres undefined) | – | 8.26 | – | – | < 5.00 | – | – | – | –
C=CCN1C[C@H](C)N([C@H](c2ccc(C(=O)N(CC)CC)cc2)c2cccc(OC)c2)C[C@H]1C [SNC-80] | 100 | – | 30.4 | 5.39 | – | 7.30 | 8.10 | 90 | –
CCN(CC)C(=O)c1ccc(C(c2ccccc2)N2CCN(c3ccc(O)cc3)CC2)cc1 (centres undefined) | – | 8.00 | – | – | < 5.00 | – | – | – | –
CCN(CC)C(=O)c1ccc(C(NCC(C)(C)N)c2ccccc2)cc1 (centres undefined) | – | 6.92 | – | – | – | – | – | – | –
CCN(CC)C(=O)c1ccc(C(c2ccccc2)N2CCN(C3CCCC3)CC2)cc1 (centres undefined) | – | 8.24 | – | – | – | – | – | – | –
C=CCN1CCN(C(c2ccccc2)c2ccc(C(=O)N(CC)CC)cc2)CC1 (stereo in doubt; 6 {1} (2)) | – | 8.10 | – | – | – | – | – | – | –
C=CCN1CCN(C(c2ccccc2)c2ccc(C(=O)N(CC)CC)cc2)CC1 (stereo in doubt; 7 {1} (2)) | – | 8.10 | – | – | < 4.30 | – | – | – | –
CCN(CC)C(=O)c1ccc(C(c2ccccc2)N2CCN(CC3CCc4ccccc4C3)CC2)cc1 (centres undefined) | – | 8.74 | – | – | 5.21 | – | – | – | –
C=CCN1CCN(C(c2ccccc2)c2ccc(C(=O)N(CC)CC)cc2)CC1 (stereo in doubt; 2) | 87 | 8.39 | 145 | 5.70 | < 5.00 | < 5.00 | 6.20 | 4 | –
CCN(CC)C(=O)c1ccc(C(c2ccccc2)N2CC(C)NC(C)C2)cc1 (centres undefined) | – | 7.38 | – | – | – | – | – | – | –
CCN(CC)C(=O)c1ccc(C(c2ccccc2)N2CCN(Cc3ccc4c(c3)OCO4)CC2)cc1 (centres undefined) | 98 | 8.85 | > 200 | 5.41 | < 5.00 | 5.60 | 7.00 | 52 | –
CCCN1CCN(C(c2ccccc2)c2ccc(C(=O)N(CC)CC)cc2)CC1 (centres undefined) | – | 7.94 | – | – | < 5.00 | – | – | – | –
CCN(CC)C(=O)c1ccc(C(c2ccccc2)N2CCNC3CCCCC32)cc1 (centres undefined) | – | 7.54 | – | – | – | – | – | – | –
CCN(CC)C(=O)c1ccc([C@H](c2ccccc2)N2C[C@@H](C)N(Cc3ccc4c(c3)OCO4)C[C@@H]2C)cc1 | 100 | 9.27 | > 200 | – | 6.15 | 5.90 | 7.40 | 68 | –
